Test [1] deals with pulmonary eosinophil infiltration. Briefly: Inhibition of late-phase eosinophilia 24 h after inhalational ovalbumin challenge in actively sensitized guinea-pigs. The format is in vivo. Conditions: BAL 24 h after OVA challenge. On the procedure: The inhibition of pulmonary eosinophil infiltration by the substances is tested in an in-vivo test on male Dunkin-Hartley guinea-pigs (200-250 g) sensitized against ovalbumin (OVA). The sensitization is carried out by means of two intraperitoneal injections of a suspension of 20 μg of OVA together with 20 mg of aluminium hydroxide as an adjuvant in 0.5 ml of physiological saline solution per animal on two successive days. 14 days after the second injection, the animals are pretreated with mepyramine maleate (10 mg/kg i.p.) in order to protect them from anaphylactic death. 30 minutes later, the animals are exposed for 30 sec in a plastic box to an OVA aerosol (0.5 mg/ml) which is generated by a nebulizer driven by compressed air (19.6 kPa) (allergen challenge). Control animals are nebulized with physiological saline solution. 24 hours after the challenge, the animals are anaesthetized with an overdose of ethylurethane (1.5 g/kg of body weight i.p.) and a bronchoalveolar lavage (BAL) is carried out with 2×5 ml of physiological saline solution. The BAL fluid is collected, centrifuged at 300 rpm for 10 min and the cell pellet is then resuspended in 1 ml of physiological saline solution. The eosinophils are stained using the Becton-Dickinson test kit (N. 5877) for eosinophils and counted in a Neubauer chamber. 2 control groups (nebulization with physiological saline solution and nebulization with OVA solution) are additionally included in each test.
The percentage inhibition of the eosinophilia of the test group treated with substance is calculated according to the following formula:
(A-C)-(B-C)/(A-C)×100=% inhibition
The test substances are administered intraperitoneally or orally as a suspension in 10% polyethylene glycol 300 and 0.5% strength 5-hydroxyethylcellulose 2 hours before allergen challenge. The control groups are treated with the vehicle according to the administration form of the test substance. The number of animals per control and test group is 3-10.

The next test addresses human cyclophilin B (Homo sapiens, UniProt P23284). The test is described as follows: Peptidylprolyl isomerase (PPIase) activity inhibition assay. The format is biochemical. Particulars: Cyp B, test peptide Suc-Ala-Ala-Pro-Phe-Nan. The procedure: To determine the anti-asthmatic, anti-allergic, anti-inflammatory and/or immunomodulating properties of the compounds according to the invention, in-vitro and in-vivo investigations were carried out. […] For the initial screening (10 μmol/l), the inhibition of human cyclophilin B in the PPIase test is determined.
The PPIase activity is tested according to a globally customary enzyme test: G. Fischer, H. Bang, C. Mech, Biomed. Biochim. Acta 43 1101-1111; G. Fischer, H. Bang, A. Schellenberger, Biochim. Biophys. Acta 791 (1984), 87-97; D. H. Rich et al., J. Med. Chem. 38 (1995), 4164-4170.
The compounds of the general formula I according to the invention are preincubated at 4° C. for 15 minutes together with 10 nmol of Cyp B. The enzyme reaction is started using the test peptide Suc-Ala-Ala-Pro-Phe-Nan after addition of chymotrypsin and HEPES buffer. The extinction change at 390 nm is then monitored and evaluated. The photometrically determined extinction change results from two sub-reactions: a) the rapid chymotryptic cleavage of the trans-peptide; b) the non-enzymatic cis-trans isomerization, which is catalysed by cyclophilins.

Sequence of human cyclophilin B (P23284 34-216): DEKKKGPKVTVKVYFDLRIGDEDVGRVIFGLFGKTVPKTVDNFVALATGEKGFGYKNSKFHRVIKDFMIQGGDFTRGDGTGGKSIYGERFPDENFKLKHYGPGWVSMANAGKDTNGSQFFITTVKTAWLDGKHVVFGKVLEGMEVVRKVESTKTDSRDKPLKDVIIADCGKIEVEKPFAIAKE

With `COc1ccc2c(c1)c(OCCOc1c(F)cc(F)cc1Br)nn2CCOc1ccc([N+](=O)[O-])cc1` [Example 99, 3-[2-(2-Bromo-4,6-difluorophenoxy)ethoxy]-5-methoxy-1-[2-(4-nitrophenoxy)ethyl]-1H-indazole], in test [1] (10 mg/kg i.p. -2 h), the “Eosinophil million/animal x ± s, B = group treated with substance with OVA challenge” value (from here on “Eosinophil million/animal x ± s”) turned out to be 1.35 ± 0.67 million/animal and the “Inhibition [%] of eosinophilia” value is reported as 46%. For the same compound, in test [1] (30 mg/kg p.o. -2 h), the “Eosinophil million/animal x ± s” value is 1.33 ± 0.23 million/animal and the “Inhibition [%] of eosinophilia” value worked out at 33%.

The inhibition is the drop in the measured response relative to a control, in per cent. The low end stands for a weak effect, the high end for a strong effect. In turn, `O=C(Nc1ccc2c(c1)c(OCCOc1ccc([N+](=O)[O-])cc1)nn2Cc1ccc(Cl)c(Cl)c1)Nc1cccc2ccccc12` [Example 116] displayed an inhibition at 10 µM on human cyclophilin B of 90%.

For `COc1ccc2c(c1)c(OCC(=O)Nc1ccc(Cl)cc1Cl)nn2S(=O)(=O)c1ccc(C)cc1` [Example 73], at human cyclophilin B, the inhibition at 10 µM is 67%.

As to `COc1ccc2c(c1)c(OCc1noc(-c3cccc(C(F)(F)F)c3)n1)nn2S(=O)(=O)c1ccc(C)cc1` [Example 32, 5-Methoxy-1-(toluene-4-sulphonyl)-3-[5-(3-trifluoromethylphenyl)-1,2,4-oxadiazol-3-ylmethoxy]-1H-indazole], in test [1] (10 mg/kg i.p. -2 h), the “Eosinophil million/animal x ± s” value is listed as 0.86 ± 0.49 million/animal and the “Inhibition [%] of eosinophilia” value is 85%. The same compound displayed an inhibition at 10 µM against human cyclophilin B of 70%.

On human cyclophilin B, `COc1ccc2c(c1)c(OCC(=O)Nc1ccc(F)cc1F)nn2S(=O)(=O)c1ccc(C)cc1` [Example 66, N-(2,4-Difluorophenyl)-2-[5-methoxy-1-(toluene-4-sulphonyl)-1H-indazol-3-yloxy]acetamide] returned an inhibition at 10 µM of 40%.

In turn, `COc1ccc2c(c1)c(OCCOc1ccc(Cl)cc1)nn2S(=O)(=O)c1ccc(Cl)cc1` [Example 7] returned an inhibition at 10 µM on human cyclophilin B of 70%.

`COc1ccc2c(c1)c(OCCOc1c(F)cc(F)cc1Br)nn2S(=O)(=O)c1ccc(C)cc1` [Example 1, 3-[2-(2-Bromo-4,6-difluorophenoxy)ethoxy]-5-methoxy-1-(toluene-4-sulphonyl)-1H-indazole]: in test [1] (10 mg/kg i.p. -2 h), the “Eosinophil million/animal x ± s” value came to 1.23 ± 0.38 million/animal and the “Inhibition [%] of eosinophilia” value amounted to 61%. Further, in test [1] (30 mg/kg p.o. -2 h), the “Eosinophil million/animal x ± s” value is recorded as 1.75 ± 1.86 million/animal and the “Inhibition [%] of eosinophilia” value is given as 65%. The inhibition at 10 µM against human cyclophilin B amounted to 95%.

As for `COc1ccc2c(c1)c(OCCOc1ccc([N+](=O)[O-])cc1)nn2Cc1ccc(F)cc1` [Example 91, 1-(4-Fluorobenzyl)-5-methoxy-3-[2-(4-nitrophenoxy)ethoxy]-1H-indazole], in test [1] (10 mg/kg i.p. -2 h), the “Eosinophil million/animal x ± s” value stood at 1.16 ± 0.65 million/animal and the “Inhibition [%] of eosinophilia” value was 71%.

In the case of `O=C(Nc1ccc2c(c1)c(OCCOc1ccc([N+](=O)[O-])cc1)nn2Cc1ccc(Cl)cc1Cl)Nc1cccc2ccccc12` [Example 114, 1-{1-(2,4-Dichlorobenzyl)-3-[2-(4-nitrophenoxy)ethoxy]-1H-indazol-5-yl}-3-naphthalen-1-ylurea], in test [1] (10 mg/kg i.p. -2 h), the “Eosinophil million/animal x ± s” value is recorded as 1.19 ± 0.43 million/animal and the “Inhibition [%] of eosinophilia” value is 58%. Besides, the inhibition at 10 µM at human cyclophilin B turned out to be 100%.

`COc1ccc2c(c1)c(OCc1cc(C(C)=O)ccc1OC)nn2CCOc1ccc([N+](=O)[O-])cc1` [Example 107]: in test [1] (10 mg/kg i.p. -2 h), the “Eosinophil million/animal x ± s” value is 1.44 ± 0.92 million/animal and the “Inhibition [%] of eosinophilia” value is 68%.

In turn, `COc1ccc2c(c1)c(OCc1ccc(Cl)cc1[N+](=O)[O-])nn2S(=O)(=O)c1ccc(C)cc1` [Example 41] gave an inhibition at 10 µM at human cyclophilin B of 71%.

With `COc1ccc2c(c1)c(OCCOc1ccc(Cl)cc1)nn2S(=O)(=O)c1ccc(F)cc1` [Example 8], in test [1] (10 mg/kg i.p. -2 h), the “Eosinophil million/animal x ± s” value is reported as 1.84 ± 0.94 million/animal and the “Inhibition [%] of eosinophilia” value amounted to 41%.

On to `COc1ccc2c(c1)c(OCc1c(Cl)cccc1Cl)nn2Cc1cccc([N+](=O)[O-])c1` [Example 84], for which the inhibition at 10 µM at human cyclophilin B was 90%.

On to `COc1ccc(S(=O)(=O)n2nc(OCCOc3ccc(Cl)cc3)c3cc(OC)ccc32)cc1` [Example 9], for which, on human cyclophilin B, testing at 10 µM gave an inhibition of 90%.

The values are drawn from patent US6166023A, “1,5- and 3-O-substituted 1H-indazoles having anti-asthmatic, anti-allergic, anti-inflammatory, immunomodulating and neuroprotective action, process for their preparation and their use as medicaments” (Arzneimittelwerk Dresden GmbH, priority 1998, dated 2000).
